# Experimental data taken from PubChem BioAssay (NCI).
#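 Briefly, cells in 96-well plates were exposed to five compound concentrations for 48 h, and endpoints were estimated by linear interpolation. The concentration for 50% growth inhibition is given as GI50. At the TGI there is no net growth.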
# Assays:
# Assay in all cases: DTP human tumour cell line panel, 48 h
# 786-0 renal = test system: 786-0 renal
# A498 renal = test system: A498 renal
# A549 NSCLC = test system: A549 NSCLC
# ACHN renal = test system: ACHN renal
# BT-549 breast = test system: BT-549 breast
# CAKI-1 renal = test system: CAKI-1 renal
# CCRF-CEM leukemia = test system: CCRF-CEM leukemia
# COLO 205 colon = test system: COLO 205 colon
# DU-145 prostate = test system: DU-145 prostate
# EKVX NSCLC = test system: EKVX NSCLC
# HCC-2998 colon = test system: HCC-2998 colon
# HCT-116 colon = test system: HCT-116 colon
# HCT-15 colon = test system: HCT-15 colon
# HL-60(TB) leukemia = test system: HL-60(TB) leukemia
# HOP-62 NSCLC = test system: HOP-62 NSCLC
# HOP-92 NSCLC = test system: HOP-92 NSCLC
# HS 578T breast = test system: HS 578T breast
# HT29 colon = test system: HT29 colon
# IGROV1 ovarian = test system: IGROV1 ovarian
# K-562 leukemia = test system: K-562 leukemia
# KM12 colon = test system: KM12 colon
# M14 melanoma = test system: M14 melanoma
# MALME-3M melanoma = test system: MALME-3M melanoma
# MDA-MB-231 breast = test system: MDA-MB-231 breast
# MDA-MB-435 = test system: MDA-MB-435
# MOLT-4 leukemia = test system: MOLT-4 leukemia
# NCI-H226 lung = test system: NCI-H226 lung
# NCI-H23 lung = test system: NCI-H23 lung
# NCI-H460 lung = test system: NCI-H460 lung
# NCI-H522 lung = test system: NCI-H522 lung
# NCI/ADR-RES ovarian = test system: NCI/ADR-RES ovarian
# OVCAR-3 ovarian = test system: OVCAR-3 ovarian
# OVCAR-4 ovarian = test system: OVCAR-4 ovarian
# OVCAR-5 ovarian = test system: OVCAR-5 ovarian
# OVCAR-8 ovarian = test system: OVCAR-8 ovarian
# PC-3 prostate = test system: PC-3 prostate
# RPMI-8226 leukemia = test system: RPMI-8226 leukemia
# RXF 393 renal = test system: RXF 393 renal
# SF-268 CNS = test system: SF-268 CNS
# SF-295 CNS = test system: SF-295 CNS
# SF-539 CNS = test system: SF-539 CNS
# SK-MEL-2 melanoma = test system: SK-MEL-2 melanoma
# SK-MEL-28 melanoma = test system: SK-MEL-28 melanoma
# SK-MEL-5 melanoma = test system: SK-MEL-5 melanoma
# SK-OV-3 ovarian = test system: SK-OV-3 ovarian
# SN12C renal = test system: SN12C renal
# SNB-19 CNS = test system: SNB-19 CNS
# SNB-75 CNS = test system: SNB-75 CNS
# SR leukemia = test system: SR leukemia
# SW-620 colon = test system: SW-620 colon
# T-47D breast = test system: T-47D breast
# TK-10 renal = test system: TK-10 renal
# U251 CNS = test system: U251 CNS
# UACC-257 melanoma = test system: UACC-257 melanoma
# UACC-62 melanoma = test system: UACC-62 melanoma
# UO-31 renal = test system: UO-31 renal
compound,measurement,setting,value
CCOC(=O)c1ccc(NC2=C(Cl)C(=O)c3nc(C)ccc3C2=O)cc1,GI50,786-0 renal,1.88 µM
same,TGI,786-0 renal,3.93 µM
same,GI50,A498 renal,11.7 µM
same,TGI,A498 renal,28.3 µM
same,GI50,A549 NSCLC,19.4 µM
same,TGI,A549 NSCLC,70.5 µM
same,GI50,ACHN renal,1.81 µM
same,TGI,ACHN renal,3.35 µM
same,GI50,BT-549 breast,2.06 µM
same,TGI,BT-549 breast,5.1 µM
same,GI50,CAKI-1 renal,1.53 µM
same,TGI,CAKI-1 renal,2.99 µM
same,GI50,CCRF-CEM leukemia,1.27 µM
same,TGI,CCRF-CEM leukemia,4.88 µM
same,GI50,COLO 205 colon,1.75 µM
same,TGI,COLO 205 colon,3.58 µM
same,GI50,DU-145 prostate,1.82 µM
same,TGI,DU-145 prostate,3.4 µM
same,GI50,EKVX NSCLC,2.53 µM
same,TGI,EKVX NSCLC,7.55 µM
same,GI50,HCC-2998 colon,3.63 µM
same,TGI,HCC-2998 colon,13.8 µM
same,GI50,HCT-116 colon,1.87 µM
same,TGI,HCT-116 colon,4.36 µM
same,GI50,HCT-15 colon,1.57 µM
same,TGI,HCT-15 colon,3.37 µM
same,GI50,HL-60(TB) leukemia,1.1 µM
same,TGI,HL-60(TB) leukemia,3.21 µM
same,GI50,HOP-62 NSCLC,10.2 µM
same,TGI,HOP-62 NSCLC,23.9 µM
same,GI50,HOP-92 NSCLC,1.8 µM
same,TGI,HOP-92 NSCLC,3.48 µM
same,GI50,HS 578T breast,2.55 µM
same,TGI,HS 578T breast,7 µM
same,GI50,HT29 colon,2.18 µM
same,TGI,HT29 colon,5.13 µM
same,GI50,IGROV1 ovarian,3.43 µM
same,TGI,IGROV1 ovarian,11.3 µM
same,GI50,K-562 leukemia,0.371 µM
same,TGI,K-562 leukemia,3.3 µM
same,GI50,KM12 colon,3.37 µM
same,TGI,KM12 colon,12.9 µM
same,GI50,M14 melanoma,1.85 µM
same,TGI,M14 melanoma,3.76 µM
same,GI50,MALME-3M melanoma,1.83 µM
same,TGI,MALME-3M melanoma,3.62 µM
same,GI50,MDA-MB-231 breast,3.73 µM
same,TGI,MDA-MB-231 breast,17.1 µM
same,GI50,MDA-MB-435,3.21 µM
same,TGI,MDA-MB-435,10.8 µM
same,GI50,MOLT-4 leukemia,1.57 µM
same,TGI,MOLT-4 leukemia,5.32 µM
same,GI50,NCI-H226 lung,3.43 µM
same,TGI,NCI-H226 lung,17.5 µM
same,GI50,NCI-H23 lung,2.31 µM
same,TGI,NCI-H23 lung,7.58 µM
same,GI50,NCI-H460 lung,8.76 µM
same,TGI,NCI-H460 lung,30.1 µM
same,GI50,NCI-H522 lung,1.71 µM
same,TGI,NCI-H522 lung,3.72 µM
same,GI50,NCI/ADR-RES ovarian,2.57 µM
same,TGI,NCI/ADR-RES ovarian,9.61 µM
same,GI50,OVCAR-3 ovarian,1.78 µM
same,TGI,OVCAR-3 ovarian,3.22 µM
same,GI50,OVCAR-4 ovarian,1.67 µM
same,TGI,OVCAR-4 ovarian,3.26 µM
same,GI50,OVCAR-5 ovarian,13.2 µM
same,TGI,OVCAR-5 ovarian,33.7 µM
same,GI50,OVCAR-8 ovarian,4.38 µM
same,TGI,OVCAR-8 ovarian,18.4 µM
same,GI50,PC-3 prostate,3.31 µM
same,TGI,PC-3 prostate,15.7 µM
same,GI50,RPMI-8226 leukemia,2.16 µM
same,TGI,RPMI-8226 leukemia,5.95 µM
same,GI50,RXF 393 renal,1.63 µM
same,TGI,RXF 393 renal,3.02 µM
same,GI50,SF-268 CNS,3.86 µM
same,TGI,SF-268 CNS,17.1 µM
same,GI50,SF-295 CNS,5.48 µM
same,TGI,SF-295 CNS,19.1 µM
same,GI50,SF-539 CNS,2.52 µM
same,TGI,SF-539 CNS,6.72 µM
same,GI50,SK-MEL-2 melanoma,2.89 µM
same,TGI,SK-MEL-2 melanoma,9.46 µM
same,GI50,SK-MEL-28 melanoma,2.47 µM
same,TGI,SK-MEL-28 melanoma,6.02 µM
same,GI50,SK-MEL-5 melanoma,2.21 µM
same,TGI,SK-MEL-5 melanoma,5.63 µM
same,GI50,SK-OV-3 ovarian,10.5 µM
same,TGI,SK-OV-3 ovarian,23.9 µM
same,GI50,SN12C renal,3.51 µM
same,TGI,SN12C renal,20.2 µM
same,GI50,SNB-19 CNS,4.76 µM
same,TGI,SNB-19 CNS,89.4 µM
same,GI50,SNB-75 CNS,2.3 µM
same,TGI,SNB-75 CNS,10.3 µM
same,GI50,SR leukemia,0.783 µM
same,TGI,SR leukemia,3.57 µM
same,GI50,SW-620 colon,2.06 µM
same,TGI,SW-620 colon,4.41 µM
same,GI50,T-47D breast,2.1 µM
same,TGI,T-47D breast,5.09 µM
same,GI50,TK-10 renal,1.79 µM
same,TGI,TK-10 renal,3.24 µM
same,GI50,U251 CNS,3.75 µM
same,TGI,U251 CNS,16.1 µM
same,GI50,UACC-257 melanoma,1.63 µM
same,TGI,UACC-257 melanoma,3.12 µM
same,GI50,UACC-62 melanoma,2.46 µM
same,TGI,UACC-62 melanoma,11.2 µM
same,GI50,UO-31 renal,1.54 µM
same,TGI,UO-31 renal,3.01 µM
